Data set [1] in a line: Particle size detection of LNP (Brookhaven NanoBrook Omni, DLS). The data set is classed as physicochemical. On the procedure: Step 1. Preparation of a lipid solution and a nucleic acid solution: unless otherwise specified, all aqueous solutions involved in examples were prepared from deionized water without nucleases. An ionizable lipid, a phospholipid (disaturated phosphatidylcholine (DSPC) or dioleoylphosphatidylethanolamine (DOPE)), cholesterol and a PEG lipid (DMG-PEG2000) were mixed in a molar ratio of 50/10/38.5/1.5 (containing DSPC, formulation 1) or 36.5/16/46.5/2.5 (containing DOPE, formulation 2) and dissolved into an ethanol solution. Meanwhile, a nucleic acid (a mass ratio of ionizable lipid/nucleic acid was 10/1) was dissolved into a citrate buffer solution of pH=3, so that a final volume ratio of the ethanol solution to the citrate solution was 1/3.
Step 2. Preparation of LNP by mixing the lipid solution with the nucleic acid solution: the lipid ethanol solution and the nucleic acid aqueous solution that were prepared in Step 1 were respectively put into a sterile syringe and placed in a Precision Nanosystem Ignite instrument, the extrusion flow speeds of the ethanol solution and the water phase solution were respectively set as 3 ml/min and 9 ml/min in instrument program settings. A microfluidic chip was inserted into the instrument and LNP preparation was initiated, and then a solution mixed by the chip was collected.
Step 2.1. Preparation of an LNP solution coating nucleic acid in a porous plate: a solution of an ionizable lipid, a phospholipid (DSPC or DOPE), cholesterol and a PEG lipid (DMG-PEG2000) in ethanol was added into each well of a 96-well deep plate, so that a molar ratio of four component lipids in each well was 50/10/38.5/1.5 (containing DSPC, formulation 1) or 36.5/16/46.5/2.5 (containing DOPE, formulation 2). Then, a citrate buffer solution (pH=3, the mass of nucleic acid added into each well was 1/10 that of the ionizable lipid in this well) that was three times as ethanol in volume and dissolved with a nucleic acid molecule was quickly added into the well plate through a multi-channel pipette or an automatic liquid dispensing system and rapidly mixed, so as to obtain the LNP solution coating nucleic acid.
Step 3. Purification of the LNP solution: the LNP solution collected in Step 2 or Step 2.1 was subjected to dialysis-concentration-filtration operations, so as to obtain a final LNP solution coating nucleic acid for subsequent testing.
The LNP solution coating nucleic acid obtained in Step 3 was diluted so that the final lipid concentration was between 0.01 mg/ml and 0.1 mg/ml. The diluted solution was added into a sample reservoir, and then subjected to particle size detection in a Brookhaven NanoBrook Omni instrument.

The subject of data set [2] is 293T cells. Kind of data set: In vitro eGFP plasmid DNA transfection. Conditions: 100 ng plasmid DNA per well, 48 h, fluorescence microscope, versus lipofectamine 3000. In kind it is cell-based. How it is done:
293T cells were inoculated into a 96-well cell culture plate at a density of 40,000 cells per well, LNPs prepared from lipid 284 and lipid 424 was used to coat plasmid DNA expressing eGFP, lipofectamine 3000 was used as a control group, 100 ng of plasmid DNA coated by the above vehicle was given to cells per well, the expression of eGFP was observed through a fluorescence microscope after co-culture for 48 h.

Data set [3] concerns enhanced green fluorescent protein (EGFP) gene. Description: LNP delivery of gene editing system (spCas9 mRNA + sgGFP), GFP knockout by flow cytometry. In kind it is cell-based. Conditions: HEK 293/eGFP-aavs1 cells, 200 ng total RNA per well, 48 h, average. On the procedure:
LNPs were prepared by using a composition ratio in formulation 2 and simultaneously coating spCas9 mRNA and sgRNA (sgGFP sequence: […]) with lipid 284, wherein N/P was 6, and a mass ratio of mRNA to sgRNA was 3/1. By DLS detection, the particle size of LNP was about 130 nm, PDI was 0.15, and the RNA encapsulation efficiency was greater than 95%. An HEK 293/eGFP-aavs1 stable cell line stably expressing a green fluorescence protein (GFP) was inoculated into a 96-well cell culture plate at a density of 40,000 cells per well. After incubation for 24 h, LNPs containing 200 ng of total RNA were added into each well, cells were collected after 48 h and the knockout efficiency cells of GFP were detected on a flow cytometer.
Background: Flow cytometry measures light scatter and fluorescence of single cells or particles in a stream.

Data set [4] can be described thus: Determination of total nucleic acid and encapsulation efficiency (Quant-iT RiboGreen RNA kit). The data set is classed as physicochemical. On the procedure: The content of nucleic acids in an LNP sample was determined through a Quant-iT™ RiboGreen® RNA detection kit (Thermofisher). The detection of total RNA concentration: 5 µl of to-be-detected sample was placed into 2 ml of ep tube, 245 µl of 1xTE Buffer was added, and the above materials were evenly mixed to obtain a "diluted sample". 100 µl of the above "diluted sample" was taken, 100 µl of 10% TritonX-100 solution was added, the above materials were sufficiently and evenly mixed, and then the obtained mixture was demulsified for 15 min in metal bath under the conditions of 37°C and 300 rpm; and 80 µl of 1xTE Buffer was added into an ELISA plate, 20 µl of demulsified sample was taken and added into the ELISA plate to be evenly mixed, and then 100 µl of fluorescence dye (2000-fold dilution) solution was added.
Detection of free RNA concentration: 90 µl of 1xTE Buffer was added into the ELISA plate, 10 µl of the above "diluted sample" was taken, and 100 µl of fluorescence dye (2000-fold dilution) solution was added.
Meanwhile, a series of standard solutions having different concentrations were set in the ELISA plate as quantitative standard curves. The samples were loaded onto the ELISA plate to detect fluorescence signals (with an excitation wavelength of 480 nm and an emission detection wavelength of 520). A corresponding RNA concentration was obtained after the fluorescence signal in each well was converted via the standard curve.
Calculation method of encapsulation efficiency: EE(%) = (Concentration of total mRNA−concentration of free mRNA)/(Concentration of total mRNA)∗100% [formula]

Data set [5] has as its system C57Bl/6 mice. Description: Luciferase mRNA delivery in mice, IVIS chemiluminescence. In kind it is in vivo. On the procedure:
The animal experiments were reviewed and approved by the Ethics Committee of Zhejiang Medical College and the Ethics Committee of Zhejiang University of Technology. 6- to 8-week-old male C57Bl/6 mice were randomly grouped with 3 mice in each group. The mice in each group received a lipid nanoparticle coating mRNA expressing a luciferase via tail vein injection at a dose of 0.25 mg/kg mouse body weight (calculated by the mass of coated mRNA). […] The mRNA delivery effect of the lipid nanoparticle is quantitatively compared through a total chemiluminiscence quantity (Total Flux p/s) of a mouse whole body within unit time (shown in Table 5).
Table 13 and Table 14 show whole body chemiluminescent signals when LNPs (formulation 2) composed of the lipids in some examples deliver Flue mRNA in mice. The delivery dose of Flue mRNA was 0.25 mg/kg. 6 h after LNP injection, 150 mg/kg of D-luciferin was intraperitoneally injected into the mice, and then the whole body chemiluminescent signals were collected in the IVIS imaging system after 10 min. […]

Data set [6] deals with 293T cells. Kind of data set: In vitro delivery of luciferase mRNA by LNPs, 293T cells. The data set is classed as cell-based, Human. The conditions noted are these: 100 ng luciferase mRNA per well, 24 h; ratio to naked mRNA control; result in words. On the procedure: (§1) Human embryonic kidney cells (293T cells) and human non-small cell lung cancer cell lines (A549 cells) were obtained from the Chinese Type Culture Collection Center and cultured in DMEM high glucose culture medium containing 10% fetal bovine serum under the environment of 37°C and 5% CO2. The cells were inoculated in a 96-well cell culture plate in a density of 32,000 cells per well. LNPs coating mRNA expressing luciferase (Trilink, USA) were taken and added into the wells at a dose of 100 ng of mRNA per well. Meanwhile, control wells were set on each culture plate, and 100 ng of naked mRNA that was not coated by LNPs was added into each well. The cell culture plate was placed in a cell incubator for 24 h of co-culture under the conditions of 37°C and 5% CO2, and then the transfection effect of mRNA was detected through a One-LumiTM firefly luciferase reporter gene detection kit. The transfection results of LNPs in 293T cells are shown in FIG. 1 to FIG. 6 and FIG. 13 (upper), and the transfection results of LNPs in A549 cells are shown in FIG. 7 to FIG. 12 and FIG. 13 (lower). The transfection efficiency is expressed as a ratio of chemiluminescent intensity of LNP group to chemiluminescent intensity of control group (direct delivery of naked luciferase mRNA that is not coated by LNP).

Data set [7] relates to respiratory syncytial virus (RSV). Kind of data set: RSV mRNA vaccine in mice, RSV true virus neutralizing antibody titers. In kind it is in vivo, BALB/c mice. The conditions noted are these: 10 µg per mouse i.m., two immunizations three weeks apart, serum 14 days after the second; result in words versus antigen protein or SM102. How it is done:
An RSV antigen mRNA sequence with a pre-fusion F protein conformation was prepared by a cap analogue co-transcription method, the sequence information is as shown in sequence 1 (SEQ ID NO: 1), and the amino acid sequence of the expressed antigen protein is as shown in sequence 2 (SEQ ID NO: 2). LNPs containing RSV-mRNA were prepared by respectively using lipid 174 and sm102 in a lipid ratio of formulation 1, wherein N/P was 6. The particle sizes and mRNA encapsulation efficiency data of two LNPs are as follows: lipid 174 has a particle size of 77.6 nm and an encapsulation efficiency of 96.2%; and sm102 has a particle size of 96.1 nm and an encapsulation efficiency of 97.9%. The LNP preparation encapsulating RSV mRNA and an F protein antigen with a pre-fusion conformation were intramuscularly administrated to BALB/c mice at a dose of 10 µg per mouse, with immunization once every three weeks for two immunizations in total. 14 days after secondary immunization, mouse serum was collected and submitted to CRO for detection of RSV true virus neutralizing antibody titers.

Data set [8] deals with A549 cells. Kind of data set: In vitro delivery of luciferase mRNA by LNPs, A549 cells. In kind it is cell-based, human. Conditions: 100 ng luciferase mRNA per well, 24 h; ratio to naked mRNA control; result in words. How it is done: as §1
Setting [9] is: formulation 2, spCas9 mRNA and sgRNA 3/1, N/P 6, DLS.
Where [10] appears, read: LNP formulation 2 (SM102: formulation 1), luciferase mRNA 0.25 mg/kg, tail vein, C57Bl/6 mice, whole body signal 6 h after LNP, 10 min after D-luciferin 150 mg/kg i.p.
Setting [11] is: LNP with RSV-mRNA, lipid ratio of formulation 1, N/P 6.
[12] abbreviates: LNPs after coating mRNA (luciferase).

Take `CCCCCCCCCCCCCC(=O)N(CCCN(C)C)C(C(=O)NCCCCCCOC(=O)C(CCCCCC)CCCCCCCC)C(C)(C)C` (stereo not drawn) [Lipid 284]: in data set [1] (setting [9]), the PDI turned out to be 0.15 and the “particle size of LNP” value is “about 130 nm”. Further, in data set [2], the “eGFP expression (delivery efficiency and positive cell ratio)” value was “delivery efficiencies and positive cell ratios exceed those in control group lipofectamine3000”. Besides, the “cells with significant knockdown of GFP expression” value in data set [3] was determined as 41.2%. For the same compound, the RNA encapsulation efficiency entry in data set [4] (formulation 2, spCas9 mRNA and sgRNA 3/1, N/P 6) was “greater than 95%”. Further, the “Chemiluminescent signal (p/s)” value in data set [5] (setting [10]) worked out at 2.42E+10 p/s.

For `CCCCCCCCCCCCCC(=O)N(CCCN(C)C)C(C(=O)NCCCCCCCC(=O)OC(CCCCCCCC)CCCCCCCC)C(C)(C)C` (stereo not drawn) [Lipid 174], the “transfection (delivery) efficiency of LNP in 293T cells” value in data set [6] is reported as “relatively high delivery efficiency”. For the same compound, the “RSV true virus neutralizing antibody titer” value in data set [7] is given as “can efficiently stimulate the mouse to generate a neutralizing antibody targeting RSV”. Moreover, the results for the Particle size in data set [1] (setting [11]) and in data set [1] (setting [12]) were 77.6 nm and 202.44 ± 2.28 nm·days, respectively. Besides, the PDI in data set [1] (setting [12]) amounted to 0.17. In addition, the “transfection (delivery) efficiency of LNP in A549 cells” value in data set [8] was “relatively high delivery efficiency”. Besides, the encapsulation efficiency in data set [4] (setting [11]) is 96.2%. Besides, the “Chemiluminescent signal (p/s)” value in data set [5] (setting [10]) was 3.15E+09 p/s.

Take `CC/C=C\C/C=C\C/C=C\C/C=C\C/C=C\CCCC(=O)N(CCCN(C)C)C(C(=O)NCCCCCCCCCCCCCC)C(C)(C)C` (stereo not drawn) [Lipid 157]: in data set [6], the “transfection (delivery) efficiency of LNP in 293T cells” value is reported as “relatively high delivery efficiency”. In addition, the “transfection (delivery) efficiency of LNP in A549 cells” value in data set [8] was “relatively high delivery efficiency”. In addition, in data set [5] (setting [10]), the “Chemiluminescent signal (p/s)” value is reported as 4.26E+09 p/s.

As for `CCCCCCCCC(CCCCCC)C(=O)OCCCCCCNC(=O)C(N(CCCN(C)C)C(=O)CCCCCCC(=O)OCC(C)CCCCCCC)C(C)(C)C` (stereo not drawn) [Lipid 424], in data set [1] (setting [12]), the PDI turned out to be 0.11 and the “Particle size” value came out at 153 ± 2.11 nm·days. The “eGFP expression (delivery efficiency and positive cell ratio)” value in data set [2] is “delivery efficiencies and positive cell ratios exceed those in control group lipofectamine3000”. The “Chemiluminescent signal (p/s)” value in data set [5] (LNPs (formulation 2), Flue mRNA 0.25 mg/kg, tail vein injection, whole body signal 6 h after LNP injection, 10 min after 150 mg/kg D-luciferin i.p.) is listed as 8.40E+ 10 p/s.
